Article PMC11784145, “Efficacy and in vitro pharmacological assessment of novel N-hydroxypyridinediones as hepatitis B virus ribonuclease H inhibitors” (Antimicrobial Agents and Chemotherapy, 2024)

Columns and labels:
[1] = tested on: HBV replication (HBV plus-polarity DNA strand); test: HBV replication inhibition, strand preferential qPCR in hepDES19 cells; type: cell-based, hepatitis B virus; conditions: for EC50: 72 h exposure, HBV plus-polarity strand suppression, highest concentration tested 100 µM, mean ± SD, read-out: HepDES19 EC50
Description: HBV replication inhibition was measured in hepDES19 cells following 72 h compound exposure without compound replenishment. EC50 values were determined by HBV plus-polarity strand suppression using a strand preferential qPCR assay, as described previously ([28]). Three or more replicate values were obtained on different days.

[2] = Solubility limit, turbidimetric assay; type: physicochemical; conditions: upper limit 200 µM
Description: Solubility limits were determined by a turbidimetric assay, as described ([27]), with the solubility limit being defined as the compound concentration where light scattering began to rise. Two or more replicate assays were performed for each compound at each pH on different days.

[3] = Parallel artificial membrane permeability assay (PAMPA); type: in vitro ADME; conditions: for Papp 4 (PAMPA): pH 7.4, replicate 4
Description: Compound Papp values were determined by normalizing the experimental compound absorbance to the compounds’ absorbances at equilibrium, membrane porosity, buffer volume, and time (s). Two or more replicate assays were obtained on separate days for each pH.

MDCK-MDR1 cells = test: MDCK-MDR1 permeability assay; type: in vitro ADME; conditions: MDCK-MDR1 cells, 10 µM compound, 2 h; actively effluxed if >2
Description: MDCK-MDR1 cells were seeded on 96-well, high protein binding immobilon-P membrane plates (Millipore Sigma) at 2.4 × 10^4 cells per well for 4 days. Media were then decanted, and the cells were equilibrated with Hanks balanced salt solution (HBSS) supplemented with 10 mM CaCl2 and 1 mM MgCl2 for 1 h. Compound (10 µM) was then added to the apical side to assess active transport and to the basolateral side to assess active efflux. The cells were incubated with compound for 2 h with shaking at 37°C. Samples (50 µL) were retrieved from the recipient wells and mixed with 150 µL acetonitrile (ACN) and internal standard (1:1 of 200 ng/mL chloridazon:enalapril). Samples were pelleted at 4,000 × g and the supernatant was analyzed by liquid-chromatography/tandem mass spectrometry (LCMS/MS) analyses. […]. Active efflux was determined by Papp B/A/Papp A/B.
Tight junction formation was assessed by lucifer yellow permeation immediately following sample retrieval. Briefly, lucifer yellow (10 µM) was added to the apical wells and HBSS was added to the basolateral wells for 1 h with shaking at 37°C, after which sample was collected from the basolateral side and read on a Biotek Synergy HTX multi-mode plate reader with 485/20 excitation and 520/20 emission filters defined by the Center Wavelength/band-pass values. The percent lucifer yellow fluorescence was determined by subtracting the HBSS relative fluorescent units (RFU) from the sample RFU and normalizing to the lucifer yellow positive control RFU. Lucifer yellow permeation was determined to be acceptable if ≤3%.

[4] = target: T1, human ribonuclease H1 (huRNase H1) (Homo sapiens, UniProt O60930); test: Human RNase H1 inhibition, fluorescent biochemical assay
T1 construct: made in house; host or cells: Escherichia coli
T1 sequence (O60930 1-286): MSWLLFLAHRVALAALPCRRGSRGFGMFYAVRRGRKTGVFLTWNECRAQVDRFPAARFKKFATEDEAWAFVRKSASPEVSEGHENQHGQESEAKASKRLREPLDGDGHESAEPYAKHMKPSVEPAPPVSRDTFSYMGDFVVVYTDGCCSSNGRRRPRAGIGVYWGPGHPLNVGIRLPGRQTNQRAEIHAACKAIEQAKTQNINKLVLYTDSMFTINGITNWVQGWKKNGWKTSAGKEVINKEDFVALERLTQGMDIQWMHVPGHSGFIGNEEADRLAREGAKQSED
Description: Recombinant human ribonuclease H1 (huRNase H1) was expressed in Escherichia coli and purified by nickel affinity chromatography, as described previously ([30]). […] The heteroduplex substrate was prepared, as described by Ponzar et al. ([30]). Reactions were initiated by the addition of MgCl2 (5 mM final) and were performed on a Biotek Synergy HTX multi-mode plate reader at 28°C.
Maximum rates of fluorescence increase were calculated using the Biotek Gen5 v3.15 software and percentage activity was determined for each compound concentration by subtracting rates from no enzyme reactions and normalizing to DMSO reactions. […] Reactions were performed at least three times on separate days.

Microsome stability = type: in vitro ADME, human; conditions: human, microsomes
Description: Human liver microsomes (gender pooled, 50 individuals) were purchased from BioIVT and stored at −80°C until use. […] Reactions were initiated by addition of 1.2 mM NADPH. […] Microsomal proteins were pelleted at 4,000 × g and the supernatant was analyzed via LCMS/MS. […] The ln percent remaining values were plotted against time, the negative slope was taken (k), and compound half-life (t1/2) was determined using ln2/k. Intrinsic clearance (Clint [µL/min/mg]) was calculated by (V × ln2)/t1/2, where V is the incubation volume (µL) divided by the protein concentration in the reaction (mg) ([31]).

HepDES19 cells = conditions: read-out: HepDES19 CC50; 72 h, MTS; highest concentration tested 100 µM; mean ± SD
Description: HepDES19 cells were plated on 96-well tissue culture-treated plates (Greiner) at 1.0 × 10^4 cells per well and incubated for 48 h. Cells were treated with titrated concentrations of compound or 1% DMSO vehicle for 72 h, and cellular viability was measured by 3-(4,5-dimethylthiazol-2-yl)−5-(3-carboxymethoxyphenyl)−2-(4-sulfophenyl)−2H-tetrazolium (MTS) assays, as described previously ([20]). […] Three or more replicate assays were done on different days.

CYP2D6 = target: T2, CYP2D6 (Homo sapiens, UniProt P10635); test: Cytochrome P450 inhibition, Vivid 2D6 EOMCC Blue kit; type: in vitro ADME; conditions: dose-response 50 µM to 3 nM; mean ± SD
T2 construct: purchased Thermo Fisher Vivid 2D6 EOMCC Blue
T2 sequence (P10635 whole entry): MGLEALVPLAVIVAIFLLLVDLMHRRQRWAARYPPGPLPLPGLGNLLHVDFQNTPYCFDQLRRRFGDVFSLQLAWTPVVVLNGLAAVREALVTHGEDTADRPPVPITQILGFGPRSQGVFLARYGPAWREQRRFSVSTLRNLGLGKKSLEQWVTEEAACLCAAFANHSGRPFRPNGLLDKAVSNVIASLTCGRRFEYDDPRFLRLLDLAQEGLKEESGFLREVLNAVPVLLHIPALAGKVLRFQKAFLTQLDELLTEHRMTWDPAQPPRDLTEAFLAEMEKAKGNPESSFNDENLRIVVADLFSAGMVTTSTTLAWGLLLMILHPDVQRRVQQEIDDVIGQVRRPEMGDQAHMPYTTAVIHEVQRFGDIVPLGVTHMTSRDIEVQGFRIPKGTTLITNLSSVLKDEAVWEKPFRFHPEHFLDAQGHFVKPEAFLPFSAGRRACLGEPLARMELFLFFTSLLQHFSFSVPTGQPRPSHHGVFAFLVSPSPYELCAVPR
Description: Compound inhibition of Cytochrome P (CYP) 3A4, 2C9, and 2D6 was determined using Vivid CYP450 screening kits (Thermo Fisher) according to the manufacturer’s instructions, as described previously ([27]). The kits employed were: Vivid 3A4 DBOMF Green, 2C9 BOMF Green, and 2D6 EOMCC Blue. Reactions were initiated by addition of the fluorophore-conjugated substrates with Vivid NADP^+ and were conducted at 37°C using either a Biotek Synergy HTX multi-mode plate reader with 485/20 nm excitation and 520/20 nm emission filters (green-fluorescent substrate), or a Tecan Spark plate reader with monochromator settings at 415/20 nm excitation and 460/20 nm emission (blue-fluorescent substrate) defined by the Center Wavelength/band-pass values. Substrate cleavage was detected every 60 s.
Compounds were initially screened against each enzyme at 10 µM and maximum rates of fluorescence in RFU were calculated using the Biotek Gen5 v3.11 software. Percent inhibition of experimental compound reactions was normalized to the rate to DMSO vehicle reactions. Positive controls used were: CYP3A4—ketoconazole (Sigma Aldrich), CYP2C9—sulfaphenazole (Cayman Chemical), and CYP2D6—quinidine (Fisher Scientific). Dose-response curves were generated for compounds that inhibited an enzyme by ≥50% using titrated concentrations of compound (50 µM to 3 nM) or 1% DMSO. IC50 values were determined using the four-parameter log[inhibitor] versus response algorithm in GraphPad Prism. Qualitative screens and dose-response curves were each performed in triplicate on different days.

[5] = pH 5 (fed simulated intestinal fluid)
[6] = pH 6.5 (fasted simulated intestinal fluid)

SMILES	HepDES19 SI (CC50/EC50) [1]	EC50 [1]	Average Sol (solubility limit) [2, 5]	Sol 1 (solubility limit) ([2]; pH 5, replicate 1)	Sol 2 (solubility limit) ([2]; pH 5, replicate 2)	Average Sol (solubility limit) [2, 6]	Sol 1 (solubility limit) ([2]; pH 6.5, replicate 1)	Sol 2 (solubility limit) ([2]; pH 6.5, replicate 2)	Average Sol (solubility limit) ([2]; pH 7.4 (DMEM-F12 with 10% FBS))	Sol 1 (solubility limit) ([2]; pH 7.4, replicate 1)	Sol 2 (solubility limit) ([2]; pH 7.4, replicate 2)	Avg Papp (PAMPA) ([3]; FeSSIF pH 5)	Interpretation (PAMPA Papp) ([3]; FeSSIF pH 5)	Papp 1 (PAMPA) ([3]; FeSSIF pH 5, replicate 1)	Papp 2 (PAMPA) ([3]; FeSSIF pH 5, replicate 2)	Avg Papp (PAMPA) ([3]; pH 7.4)	Interpretation (PAMPA Papp) ([3]; pH 7.4)	Papp 1 (PAMPA) ([3]; pH 7.4, replicate 1)	Papp 2 (PAMPA) ([3]; pH 7.4, replicate 2)	Papp 3 (PAMPA) ([3]; pH 7.4, replicate 3)	also measured
CC(=NOCc1ccc(C)cc1)c1c(C)cc(=O)n(O)c1O [Compound 1462]	112	0.295 ± 0.122 µM	> 200 µM	> 200 µM	> 200 µM	> 200 µM	> 200 µM	> 200 µM	> 200 µM	> 200 µM	> 200 µM	10.1 ×10⁻⁶ cm/s	H (H: Papp > 1*10-6)	14.7 ×10⁻⁶ cm/s	5.56 ×10⁻⁶ cm/s	1.44 ×10⁻⁶ cm/s	H (H: Papp > 1*10-6)	0.513 ×10⁻⁶ cm/s	0.971 ×10⁻⁶ cm/s	2.84 ×10⁻⁶ cm/s	Efflux Ratio (Papp B-A/A-B) (MDCK-MDR1 cells): 1.31; Selectivity of HBV replication inhibition over huRNase H1 (huRNase H1 IC50 versus HBV EC50) [4]: at least 10 fold; Clearance (intrinsic clearance, Clint) (Microsome stability): 34.8 µL/min/mg; Half-life (Microsome stability): >30 min; CC50 (HepDES19 cells): 33.1 ± 5.24 µM
CC(=NOCc1ccc(F)cc1F)c1c(C)cc(=O)n(O)c1O [Compound 1464]	281	0.188 ± 0.063 µM	> 200 µM	> 200 µM	> 200 µM	> 200 µM	> 200 µM	> 200 µM	> 200 µM	> 200 µM	> 200 µM	36.2 ×10⁻⁶ cm/s	H (H: Papp > 1*10-6)	14.4 ×10⁻⁶ cm/s	50.1 ×10⁻⁶ cm/s	2.49 ×10⁻⁶ cm/s	H (H: Papp > 1*10-6)	2.62 ×10⁻⁶ cm/s	2.31 ×10⁻⁶ cm/s	2.3 ×10⁻⁶ cm/s	Sol 3 (solubility limit) ([2]; pH 5, replicate 3): > 200 µM; Papp 3 (PAMPA) ([3]; FeSSIF pH 5, replicate 3): 44.2 ×10⁻⁶ cm/s; Papp 4 (PAMPA) [3]: 2.73 ×10⁻⁶ cm/s; Efflux Ratio (Papp B-A/A-B) (MDCK-MDR1 cells): 1.04; Selectivity of HBV replication inhibition over huRNase H1 (huRNase H1 IC50 versus HBV EC50) [4]: at least 10 fold; Half-life (Microsome stability): >30 min; CC50 (HepDES19 cells): 63.6 ± 27 µM
CC(=NOCc1cccc(Br)c1)c1c(C)cc(=O)n(O)c1O [Compound 1621]	192	0.52 ± 0.33 µM	> 200 µM	> 200 µM	> 200 µM	> 200 µM	> 200 µM	> 200 µM	> 200 µM	> 200 µM	> 200 µM	26.3 ×10⁻⁶ cm/s	H (H: Papp > 1*10-6)	31.7 ×10⁻⁶ cm/s	20.9 ×10⁻⁶ cm/s	4.53 ×10⁻⁶ cm/s	H (H: Papp > 1*10-6)	0.49 ×10⁻⁶ cm/s	4.47 ×10⁻⁶ cm/s	10.6 ×10⁻⁶ cm/s	Papp 4 (PAMPA) [3]: 0.488 ×10⁻⁶ cm/s; Papp 5 (PAMPA) ([3]; pH 7.4, replicate 5): 6.7 ×10⁻⁶ cm/s; Papp 6 (PAMPA) ([3]; pH 7.4, replicate 6): 4.44 ×10⁻⁶ cm/s; IC50 (CYP2D6): 19.5 µM; CC50 (HepDES19 cells): 78.5 ± 32.4 µM
